4 compounds from ChEMBL document CHEMBL1268928, “Design and synthesis of novel pyrimidine hydroxamic acid inhibitors of histone deacetylases” (Bioorg Med Chem Lett, 2010) can be followed below.

In assay [1] the target is Histone deacetylase. Kind of assay: Inhibition of HDAC in human HeLa cell nuclear extracts by fluorimetric assay. It counts as protein assay.
For assay [2], the system named is HCT-116. Kind of assay: cells. It is filed as functional. Particulars: Homo sapiens, HCT-116, 72 h.
Description: Growth inhibition of human HCT116 cells after 72 hrs by SRB assay
The subject of assay [3] is HeLa. Kind of assay: cells. It counts as functional. Particulars: Homo sapiens, 72 h.
Description: Growth inhibition of human HeLa cells after 72 hrs by SRB assay
The test system of assay [4] is U-937. Kind of assay: cells. To be noted: Homo sapiens, U-937, 72 h. It counts as functional.
Description: Growth inhibition of human U937 cells after 72 hrs by SRB assay
Assay [5] deals with HuT78. Put plainly: cells. It counts as functional. To be noted: Homo sapiens, HuT78, 72 h.
Description: Growth inhibition of human HUT78 cells after 72 hrs by SRB assay
In assay [6] the test system is HeLa. Kind of assay: Growth inhibition of human HeLa cells at 10 uM after 72 hrs by SRB assay. It counts as functional. To be noted: read-out: GI. A general note: Sulforhodamine B stains cellular protein and so reports cell mass.

Regarding `O=C(NO)c1cnc(N2C[C@@H]3CN(S(=O)(=O)c4ccc(OC(F)(F)F)cc4)C[C@@H]3C2)nc1`, the IC50 – broadly, the concentration that inhibits the measured activity by half – in assay [1] stood at 123 nM. Besides, the GI50 (as a rule, the concentration at which growth is held to half of that of the control) in assay [2] came to 530 nM; in assay [3] it was 940 nM; in assay [4], 980 nM; in assay [5], 500 nM.

`O=C(NO)c1cnc(N2C[C@H]3CN(C(=O)CCCOc4ccccc4)C[C@H]3C2)nc1` registered an IC50 in assay [1] of 122 nM. In addition, the GI50 in assay [2] amounted to 1800 nM; in assay [3] it was 3950 nM; in assay [4] it was 900 nM; in assay [5], 800 nM.

In turn, `O=C(NO)c1cnc(N2C[C@H]3CN(C(=O)c4ccc5ccccc5c4)C[C@H]3C2)nc1` yielded a concentration for half-maximal inhibition (IC50) in assay [1] of 12 nM. Also, the GI50 in assay [2] stood at 590 nM; in assay [3], 210 nM; in assay [4], 390 nM; in assay [5], 200 nM.

In assay [1], `O=C(NO)c1cnc(N2C[C@@H]3CN(S(=O)(=O)c4cc(C(F)(F)F)cc(C(F)(F)F)c4)C[C@@H]3C2)nc1` had an IC50 of 433 nM. Also, the GI50 in assay [2] came to 1700 nM; in assay [4], 1250 nM; in assay [5], 700 nM. In addition, in assay [6], the inhibition of growth at 10 µM amounted to 42%.
